Entries after “also recorded” stand apart in the source; their conditions may differ. No end group written: not given here.
Key:
[1] = system: C13NJ microglial cell line; experiment: C13NJ wound-healing assay (NT-induced cell migration); assay type: cell-based; conditions: 10 nM NT in the presence of 1 μM spadin
Description: A cell-free zone was created within a semi-confluent monolayer with a pipette tip. We analyzed by time-lapse microscopy how cells repopulated the cell-free zone. The 100% of migrating cells was calculated by stimulation of cell migration with 10% of Fetal Calf Serum (FCS).
A cell-free zone was created within a semi-confluent monolayer of microglial culture by scratching cells off with a pipette tip.

mice [2] = experiment: Learned Helplessness (LH) test; assay type: in vivo, mouse; conditions: acute i.v., 10^-6 M, shocked mice
Description: LH training was carried out in 2-way shuttle plexiglas boxes (Imetronic). Each box was divided in 2 equal compartments (19.5×10×13 cm) separated by a wall equipped with, a gate (4.7×4.7 cm) that was closed during LH training but opened automatically during shuttle escape testing. LH was induced in shocked group by administering 360 inescapable, 2-s duration footshocks (0.3 mA intensity), administered once every 10 s over a 1-hour session. Scrambled shocks were delivered by a source shock to a grid floor, which was made of stainless steel bars 2 mm in diameter, spaced 4 mm apart. […] 24 hours later, escape testing was performed in the same box, but the animals had the possibility to avoid shocks by moving through the gate to the other side of the box. During testing sessions, all mice were given 30 shuttle escape trials with 30 s intervals between the start of each trial. While on the first five trials, the gate opened at the same time as the shock (0.3 mA), for the 25 remaining trials, the gate opened 2 s after shock onset. Each trial (with a maximal 24 s) duration was terminated when the mouse went into the adjacent compartment. Escape latencies were averaged over 5 trials. Overall escape latencies were computed by averaging escape latencies over 30 trials.

mice [3] = experiment: Novelty-Suppressed Feeding test (NSF); assay type: in vivo, mouse; conditions: 4 days; spadin i.v. 10^-6 M, fluoxetine i.p. 3 mg/kg; 3 mg/kg
Description: NSF paradigm is a conflict test that elicits competing motivations: the drive to eat and the fear of venturing into the center of a bright arena. Latency to begin eating is used as an index of anxiety- and depression-like behavior. After 4 day treatment (saline or spadin, i.v.) and 24 hours food-deprivation, mice were presented with a food pellet placed in the center of a brightly plastic box (50×50×20 cm). Latency to begin eating was measured as previously described.

In the case of APLPRWSGPIGVSWGLR [spadin], the “migrating cells, % of number migrating with 10% FCS” value [1] is reported as 6.2±1.3%, the “reduced escape latencies after training versus saline” value (mice [2]) is reported as 25.4% and the “latency to feed versus saline” value (mice [3]) is reported as “significant decrease in latency to feed; also recorded: significantly reduced the latency to feed”.

Reference: patent publication US20120322060A1, “DIAGNOSIS AND MONITORING TREATMENT OF PSYCHIATRIC DISEASES WITH SPADIN AND RELATED METHODS” (CENTRE NATIONAL DE LE RECHERCHE SCIENTIFIQUE - CNRS -, priority 2011, published 2012)
